In brackets after ≈: the same amount, converted by molar mass. Values belong to the compound of their own block, whether it stands above or below them.
Legend:
Assay in all cases: ≥ marks a high value that may be exact or a test limit, other limits are often not marked, values filed in µg/mL are converted to µM
Vibrio cholerae PL91 = tested on: Vibrio cholerae PL91
[1] = tested on: Pseudomonas aeruginosa ATCC 10145
[2] = tested on: Escherichia coli NCLM 2064
[3] = tested on: Bacillus cereus NCLM 2156
[4] = tested on: Staphylococcus aureus ATCC 25923
Listeria grayi DSM 20601 = tested on: Listeria grayi DSM 20601
[5] = tested on: Listeria fleischmannii DSM 24998
Escherichia coli D31 = tested on: Escherichia coli D31
[6] = tested on: Staphylococcus aureus DSM 2569
[7] = tested on: Listeria monocytogenes DSM 20600
[8] = tested on: Micrococcus luteus DSM 20030
Streptococcus pneumoniae = tested on: Streptococcus pneumoniae
[9] = tested on: Pseudomonas aeruginosa ATCC 15442
Citrobacter sp. = tested on: Citrobacter sp.
Enterobacter cloacae = tested on: Enterobacter cloacae
Staphylococcus aureus = tested on: Staphylococcus aureus
[10] = tested on: Escherichia coli ATCC 25922
[11] = tested on: Acinetobacter baumannii ATCC 15308
Klebsiella pneumoniae = tested on: Klebsiella pneumoniae
[12] = tested on: Pseudomonas aeruginosa CCARM 2002
[13] = tested on: Escherichia coli CCARM 1238
[14] = tested on: Staphylococcus epidermidis KCTC 1917
[15] = tested on: Staphylococcus aureus CCARM 3108
[16] = tested on: Pseudomonas aeruginosa CCARM 2095
[17] = tested on: Salmonella typhimurium CCARM 8007
[18] = tested on: Acinetobacter baumannii KCTC 2508
[19] = tested on: Staphylococcus aureus CCARM 3089
[20] = tested on: Acinetobacter baumannii CCARM 12036
[21] = tested on: Escherichia coli CCARM 1229
[22] = tested on: Acinetobacter baumannii CCARM 12035
[23] = tested on: Staphylococcus aureus CCARM 3126
[24] = tested on: Salmonella typhimurium CCARM 8003
[25] = tested on: Escherichia coli KCTC 1682
[26] = tested on: Salmonella typhimurium KCTC 1926
[27] = tested on: Bacillus subtilis KCTC 3028
[28] = tested on: Pseudomonas aeruginosa KCTC 1637
[29] = tested on: Staphylococcus aureus KCTC 1621

MIC [1]: ≥ 59.6 µM | MIC [2]: 11.9 µM (≈ 30 µg/mL) | MIC [3]: ≥ 39.7 µM | MIC [4]: > 59.6 µM
Compound: CC[C@H](C)[C@H](NC(=O)[C@H](CCCCN)NC(=O)[C@@H](NC(=O)[C@H](CC(C)C)NC(=O)[C@@H]1CCCN1C(=O)CNC(=O)[C@H](Cc1ccccc1)NC(=O)[C@@H](N)Cc1ccccc1)[C@@H](C)CC)C(=O)N[C@@H](C)C(=O)N[C@H](C(=O)NCC(=O)N[C@H](C(=O)N[C@@H](CC(C)C)C(=O)N1CCC[C@H]1C(=O)N[C@@H](CC(N)=O)C(=O)N[C@@H](CC(C)C)C(=O)N[C@H](C(=O)N[C@H]1CSSC[C@@H](C(=O)O)NC(=O)[C@H](CCCCN)NC(=O)CNC(=O)[C@H](CC(C)C)NC(=O)[C@H](C)NC(=O)[C@H](CCCCN)NC1=O)[C@@H](C)CC)C(C)C)[C@@H](C)O [FFGPLIKIATGVLPNLICKALGKC]
MIC (Vibrio cholerae PL91): ≥ 59.6 µM

MIC (Listeria grayi DSM 20601): 15 µM (≈ 21.4 µg/mL) | MIC [5]: 4 µM (≈ 5.71 µg/mL) | MIC (Escherichia coli D31): 8 µM (≈ 11.4 µg/mL) | MIC [6]: 15 µM (≈ 21.4 µg/mL) | MIC [7]: 8 µM (≈ 11.4 µg/mL) | MIC [8]: 8 µM (≈ 11.4 µg/mL)
Compound: CC[C@H](C)[C@H](NC(=O)CNC(=O)[C@H](CO)NC(=O)[C@H](CC(C)C)NC(=O)[C@H](CC(C)C)NC(=O)[C@H](C)NC(=O)[C@H](CO)NC(=O)[C@H](Cc1ccccc1)NC(=O)[C@@H](N)Cc1ccccc1)C(=O)N[C@@H](CCCCN)C(=O)N[C@@H](CO)C(=O)N[C@@H](CC(C)C)C(=O)N[C@@H](Cc1ccccc1)C(N)=O [FFSALLSGIKSLF]

MIC (Streptococcus pneumoniae): 3.67 µM (≈ 7.81 µg/mL) | MIC [9]: 14.7 µM (≈ 31.2 µg/mL) | MIC (Citrobacter sp.): ≥ 118 µM | MIC (Enterobacter cloacae): ≥ 118 µM | MIC (Staphylococcus aureus): 3.67 µM (≈ 7.81 µg/mL) | MIC [4]: 3.67 µM (≈ 7.81 µg/mL) | MIC [10]: 3.67 µM (≈ 7.81 µg/mL) | MIC [11]: 14.7 µM (≈ 31.2 µg/mL) | MIC (Klebsiella pneumoniae): > 118 µM
Compound: CC[C@H](C)[C@H](NC(=O)[C@H](CC(C)C)NC(=O)CNC(=O)CNC(=O)[C@H](CC(C)C)NC(=O)[C@@H](N)Cc1ccccc1)C(=O)N[C@@H](CCCCN)C(=O)N[C@@H](CCCCN)C(=O)N[C@@H](Cc1c[nH]c2ccccc12)C(=O)N1CCC[C@H]1C(=O)N[C@@H](Cc1c[nH]c2ccccc12)C(=O)N[C@@H](Cc1c[nH]c2ccccc12)C(=O)N1CCC[C@H]1C(=O)N[C@@H](Cc1c[nH]c2ccccc12)C(=O)N[C@@H](CCCN=C(N)N)C(=O)N[C@@H](CCCN=C(N)N)C(N)=O [FLGGLIKKWPWWPWRR]

MIC [12]: 16 µM (≈ 43.8 µg/mL) | MIC [13]: 16 µM (≈ 43.8 µg/mL) | MIC [14]: ≥ 64 µM | MIC [15]: ≥ 64 µM | MIC [16]: 16 µM (≈ 43.8 µg/mL) | MIC [17]: 16 µM (≈ 43.8 µg/mL) | MIC [18]: 16 µM (≈ 43.8 µg/mL) | MIC [19]: ≥ 64 µM | MIC [20]: 16 µM (≈ 43.8 µg/mL) | MIC [21]: ≥ 32 µM | MIC [22]: 16 µM (≈ 43.8 µg/mL) | MIC [23]: ≥ 64 µM | MIC [24]: 16 µM (≈ 43.8 µg/mL) | MIC [25]: 16 µM (≈ 43.8 µg/mL) | MIC [26]: 16 µM (≈ 43.8 µg/mL) | MIC [27]: ≥ 64 µM | MIC [28]: 8 µM (≈ 21.9 µg/mL) | MIC [29]: ≥ 64 µM
Compound: CC[C@H](C)[C@H](NC(=O)[C@H](C)NC(=O)[C@H](CCC(=O)O)NC(=O)[C@H](Cc1cnc[nH]1)NC(=O)[C@@H](NC(=O)[C@@H]1CCCN1C(=O)[C@H](CCC(N)=O)NC(=O)[C@H](Cc1ccccc1)NC(=O)[C@@H](NC(=O)[C@H](CCCCN)NC(=O)[C@H](CCCCN)NC(=O)[C@H](CC(C)C)NC(=O)[C@H](C)NC(=O)[C@H](CC(N)=O)NC(=O)[C@H](CC(C)C)NC(=O)CN)C(C)C)[C@@H](C)CC)C(=O)N[C@@H](CCCCN)C(=O)N[C@@H](CCCCN)C(=O)N[C@H](C(=O)N[C@@H](CC(N)=O)C(=O)N[C@@H](CC(N)=O)C(=O)N[C@@H](Cc1cnc[nH]1)C(=O)N[C@H](C(=O)N[C@@H](CCC(N)=O)C(=O)O)C(C)C)[C@@H](C)CC [GLNALKKVFQPIHEAIKKINNHVQ]

— DBAASP
